Data: PMC7230820, “Anti-Inflammatory Effects of Fucoxanthinol in LPS-Induced RAW264.7 Cells through the NAAA-PEA Pathway” (Marine Drugs, 2020)

How the values were obtained:
[1] = molecular target: T1, fatty acid amide hydrolase (FAAH) (Homo sapiens, UniProt O00519); test: recombinant enzyme activity assay, anandamide substrate, pH […]; format: biochemical
T1 sequence (O00519 1-579): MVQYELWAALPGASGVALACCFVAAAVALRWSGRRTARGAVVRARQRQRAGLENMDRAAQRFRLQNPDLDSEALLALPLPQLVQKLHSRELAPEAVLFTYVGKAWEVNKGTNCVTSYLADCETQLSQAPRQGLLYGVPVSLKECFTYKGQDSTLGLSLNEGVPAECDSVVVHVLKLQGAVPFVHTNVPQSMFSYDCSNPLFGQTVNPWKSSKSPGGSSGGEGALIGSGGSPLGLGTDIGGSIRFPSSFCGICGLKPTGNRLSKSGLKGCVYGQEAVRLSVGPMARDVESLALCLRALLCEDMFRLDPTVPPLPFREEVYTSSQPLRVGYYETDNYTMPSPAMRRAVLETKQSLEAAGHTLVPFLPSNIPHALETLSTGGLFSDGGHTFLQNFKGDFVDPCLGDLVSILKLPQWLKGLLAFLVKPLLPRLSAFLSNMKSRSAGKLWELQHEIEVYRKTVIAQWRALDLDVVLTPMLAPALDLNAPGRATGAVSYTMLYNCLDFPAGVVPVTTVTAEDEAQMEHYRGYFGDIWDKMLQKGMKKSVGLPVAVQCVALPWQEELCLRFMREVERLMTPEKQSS

[2] = molecular target: T2, N-acylethanolamine acid amidase (NAAA) (Homo sapiens, UniProt Q02083); test: recombinant enzyme activity assay, heptaenyl ethanolamide substrate, pH […]; format: biochemical
T2 sequence (Q02083 29-125): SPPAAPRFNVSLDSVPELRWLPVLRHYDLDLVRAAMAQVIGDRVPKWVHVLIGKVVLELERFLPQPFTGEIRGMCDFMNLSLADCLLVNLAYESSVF
T2 sequence (Q02083 126-359): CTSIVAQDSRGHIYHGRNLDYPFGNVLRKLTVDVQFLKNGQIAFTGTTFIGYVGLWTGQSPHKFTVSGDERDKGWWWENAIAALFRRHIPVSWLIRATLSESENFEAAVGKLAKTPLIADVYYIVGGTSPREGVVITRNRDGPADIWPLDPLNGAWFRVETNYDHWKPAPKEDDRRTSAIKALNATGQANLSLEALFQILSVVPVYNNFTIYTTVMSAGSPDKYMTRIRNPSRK

| IC50 [1] | Compound | IC50 [2] |
| --- | --- | --- |
| 42.4 ± 1.11 µM | C\C(C=C=C1C(C)(C)C[C@H](O)C[C@@]1(C)O)=C/C=C/C(C)=C/C=C/C=C(C)/C=C/C=C(\C)C(=O)C[C@@]12O[C@]1(C)C[C@@H](O)CC2(C)C [FXOH, Fucoxanthinol] | 12.8 ± 1.12 µM |
| – | CC(=O)O[C@H]1CC(C)(C)C(=C=C/C(C)=C/C=C/C(C)=C/C=C/C=C(C)/C=C/C=C(\C)C(=O)C[C@@]23O[C@]2(C)C[C@@H](O)CC3(C)C)[C@](C)(O)C1 [FX, Fucoxanthin] | 31.4 ± 1.06 µM |
